Data reported in article PMC5218480 (PLoS ONE, 2017).

Tested on: MV-4-11 cells
Assay: Gene expression microarray analysis (Affymetrix PrimeView) and GSEA
Type: cell-based, human
Design: RFU PODN (11730768_x_at) / Fold change /veh PODN (11730768_x_at) / RFU LINC00158 (11744669_a_at) / Fold change /veh LINC00158 (11744669_a_at) / RFU DUSP10 (11751237_a_at) / Fold change /veh DUSP10 (11751237_a_at) / RFU ID3 (11757404_x_at) / Fold change /veh ID3 (11757404_x_at) / RFU PLEKHG5 (11737974_s_at) / Fold change /veh PLEKHG5 (11737974_s_at) / RFU LRRC4B (11730491_at) / Fold change /veh LRRC4B (11730491_at) / RFU GIMAP4 (11747438_a_at) / Fold change /veh GIMAP4 (11747438_a_at) / RFU KRT8 (11758183_x_at) / Fold change /veh KRT8 (11758183_x_at) / RFU CNN1 (11734310_a_at) / Fold change /veh CNN1 (11734310_a_at) / RFU VPS37D (11726825_at) / Fold change /veh VPS37D (11726825_at) / RFU C10orf10 (11716522_x_at) / Fold change /veh C10orf10 (11716522_x_at) / RFU KIR2DL2 /// KIR2DL4 /// KIR2DL5A /// KIR2DL5B /// KIR2DS1 /// KIR2DS2 /// KIR2DS3 /// KIR2DS4 /// KIR3DL3 /// KIR3DL3 /// KIR3DS1 (11738374_at) / Fold change /veh KIR2DL2 /// KIR2DL4 /// KIR2DL5A /// KIR2DL5B /// KIR2DS1 /// KIR2DS2 /// KIR2DS3 /// KIR2DS4 /// KIR3DL3 /// KIR3DL3 /// KIR3DS1 (11738374_at) / RFU C1QL1 (11718748_at) / Fold change /veh C1QL1 (11718748_at) / RFU TMPRSS4 (11747572_a_at) / Fold change /veh TMPRSS4 (11747572_a_at) / RFU HAMP (11756126_x_at) / Fold change /veh HAMP (11756126_x_at) / RFU RNFT2 (11725882_a_at) / Fold change /veh RNFT2 (11725882_a_at) / RFU NR4A2 (11747474_a_at) / Fold change /veh NR4A2 (11747474_a_at) / RFU ABCC12 (11746883_a_at) / Fold change /veh ABCC12 (11746883_a_at) / RFU TMEM136 (11760407_x_at) / Fold change /veh TMEM136 (11760407_x_at) / RFU CLDN22 /// WWC2 (11732394_at) / Fold change /veh CLDN22 /// WWC2 (11732394_at) / RFU HLA-DPB1 (11760878_x_at) / Fold change /veh HLA-DPB1 (11760878_x_at) / RFU SPINT1 (11716480_a_at) / Fold change /veh SPINT1 (11716480_a_at) / RFU GAP43 (11754022_s_at) / Fold change /veh GAP43 (11754022_s_at) / RFU A4GNT (11735810_at) / Fold change /veh A4GNT (11735810_at) / RFU PRB3 (11715151_x_at) / Fold change /veh PRB3 (11715151_x_at) / RFU TUBB4B (11761932_at) / Fold change /veh TUBB4B (11761932_at) / RFU CAPN14 (11732068_a_at) / Fold change /veh CAPN14 (11732068_a_at) / RFU TMCC2 (11721928_a_at) / Fold change /veh TMCC2 (11721928_a_at) / RFU IRGQ (11745062_a_at) / Fold change /veh IRGQ (11745062_a_at) / RFU FAM174B (11720279_a_at) / Fold change /veh FAM174B (11720279_a_at) / RFU TMPRSS4 (11748680_a_at) / Fold change /veh TMPRSS4 (11748680_a_at) / RFU FAM212B (11763350_a_at) / Fold change /veh FAM212B (11763350_a_at) / RFU PLEKHG5 (11743358_a_at) / Fold change /veh PLEKHG5 (11743358_a_at) / RFU ZSCAN30 (11745921_a_at) / Fold change /veh ZSCAN30 (11745921_a_at) / RFU CMKLR1 (11741424_a_at) / Fold change /veh CMKLR1 (11741424_a_at) / RFU LOC101060620 /// MAPK8IP1 (11723275_at) / Fold change /veh LOC101060620 /// MAPK8IP1 (11723275_at) / RFU SPTSSB (11747773_x_at) / Fold change /veh SPTSSB (11747773_x_at) / RFU PRSS12 (11739890_at) / Fold change /veh PRSS12 (11739890_at) / RFU BIN1 (11741810_x_at) / Fold change /veh BIN1 (11741810_x_at) / RFU WNT11 (11732464_a_at) / Fold change /veh WNT11 (11732464_a_at) / RFU C10orf10 (11716521_a_at) / Fold change /veh C10orf10 (11716521_a_at) / RFU C5orf56 (11738089_at) / Fold change /veh C5orf56 (11738089_at) / RFU CYB561 (11721691_x_at) / Fold change /veh CYB561 (11721691_x_at) / RFU ANKRD19P (11752326_a_at) / Fold change /veh ANKRD19P (11752326_a_at) / RFU OR2T12 /// OR2T33 /// OR2T8 (11738714_s_at) / Fold change /veh OR2T12 /// OR2T33 /// OR2T8 (11738714_s_at) / RFU VCAN (11748164_a_at) / Fold change /veh VCAN (11748164_a_at) / RFU JSRP1 (11732532_at) / Fold change /veh JSRP1 (11732532_at) / RFU KRTAP10-11 (11738290_x_at) / Fold change /veh KRTAP10-11 (11738290_x_at) / RFU MYO3A (11730013_a_at) / Fold change /veh MYO3A (11730013_a_at) / RFU EBF3 (11725865_a_at) / Fold change /veh EBF3 (11725865_a_at) / RFU CAMK2N1 (11719241_x_at) / Fold change /veh CAMK2N1 (11719241_x_at) / RFU C5orf56 (11738088_a_at) / Fold change /veh C5orf56 (11738088_a_at) / RFU OLFML3 (11715873_a_at) / Fold change /veh OLFML3 (11715873_a_at) / RFU LOC100653217 /// NTM (11731650_a_at) / Fold change /veh LOC100653217 /// NTM (11731650_a_at) / RFU MAPK11 (11762145_a_at) / Fold change /veh MAPK11 (11762145_a_at) / RFU FIZ1 (11724087_x_at) / Fold change /veh FIZ1 (11724087_x_at) / RFU OASL (11726364_x_at) / Fold change /veh OASL (11726364_x_at) / RFU SOX15 (11748057_x_at) / Fold change /veh SOX15 (11748057_x_at) / RFU CD79A (11719716_a_at) / Fold change /veh CD79A (11719716_a_at) / RFU HIST1H1D (11736915_at) / Fold change /veh HIST1H1D (11736915_at) / RFU CASKIN2 (11723855_a_at) / Fold change /veh CASKIN2 (11723855_a_at) / RFU LOC730098 (11760151_x_at) / Fold change /veh LOC730098 (11760151_x_at) / RFU OR4N2 (11742367_at) / Fold change /veh OR4N2 (11742367_at) / RFU PRRT2 (11749266_a_at) / Fold change /veh PRRT2 (11749266_a_at) / RFU SNX32 (11753110_a_at) / Fold change /veh SNX32 (11753110_a_at) / RFU CDHR5 (11726645_a_at) / Fold change /veh CDHR5 (11726645_a_at) / RFU RCAN1 (11760418_a_at) / Fold change /veh RCAN1 (11760418_a_at) / RFU FAM167A (11723789_a_at) / Fold change /veh FAM167A (11723789_a_at) / RFU FAM26E (11764081_at) / Fold change /veh FAM26E (11764081_at) / RFU ISYNA1 (11749810_s_at) / Fold change /veh ISYNA1 (11749810_s_at) / RFU ACY1 (11761880_at) / Fold change /veh ACY1 (11761880_at) / RFU 11764098_at / Fold change /veh 11764098_at / RFU SAMD14 (11745864_x_at) / Fold change /veh SAMD14 (11745864_x_at) / RFU NPB (11741838_a_at) / Fold change /veh NPB (11741838_a_at) / RFU TMPRSS6 (11731388_a_at) / Fold change /veh TMPRSS6 (11731388_a_at) / RFU KRTAP10-2 (11738614_at) / Fold change /veh KRTAP10-2 (11738614_at) / RFU ARHGAP8 /// PRR5-ARHGAP8 (11727945_x_at) / Fold change /veh ARHGAP8 /// PRR5-ARHGAP8 (11727945_x_at) / RFU KRTAP5-7 /// NADSYN1 (11734609_at) / Fold change /veh KRTAP5-7 /// NADSYN1 (11734609_at) / RFU RASL12 (11751679_a_at) / Fold change /veh RASL12 (11751679_a_at) / RFU CDKN2B (11736163_a_at) / Fold change /veh CDKN2B (11736163_a_at) / RFU PRF1 (11729649_at) / Fold change /veh PRF1 (11729649_at) / RFU, ZNF638 /// ZNF638-IT1 / Fold change vs veh, ZNF638 /// ZNF638-IT1 / RFU, PANK3 / Fold change vs veh, PANK3 / RFU, SH3YL1 / Fold change vs veh, SH3YL1 / RFU, ZEB2 / Fold change vs veh, ZEB2 / RFU, NRIP1 / Fold change vs veh, NRIP1 / RFU, PTTG1IP / Fold change vs veh, PTTG1IP / RFU, CAPN2 / Fold change vs veh, CAPN2 / RFU, MED14 / Fold change vs veh, MED14 / RFU, SNORA58 / Fold change vs veh, SNORA58 / RFU, C1orf63 / Fold change vs veh, C1orf63 / RFU, LRRFIP1 / Fold change vs veh, LRRFIP1 / RFU, NDUFAF7 / Fold change vs veh, NDUFAF7 / RFU, SLC12A2 / Fold change vs veh, SLC12A2 / RFU, IBTK / Fold change vs veh, IBTK / RFU, ESF1 / Fold change vs veh, ESF1 / Fold change vs veh, TMEM50B / RFU, TAOK1 / Fold change vs veh, TAOK1 / RFU, ACBD3 / Fold change vs veh, ACBD3 / RFU, TMA16 / Fold change vs veh, TMA16 / RFU, RWDD3 / Fold change vs veh, RWDD3 / RFU, BCAT1 / Fold change vs veh, BCAT1 / RFU, EDEM3 / Fold change vs veh, EDEM3 / RFU, TMEM33 / Fold change vs veh, TMEM33 / RFU, WDR75 / Fold change vs veh, WDR75 / RFU, AHCTF1 / Fold change vs veh, AHCTF1 / RFU, TFRC / Fold change vs veh, TFRC / RFU, ZDHHC17 / Fold change vs veh, ZDHHC17 / RFU, NOM1 / Fold change vs veh, NOM1 / RFU, ARL8B / Fold change vs veh, ARL8B / RFU, ZBTB11 / Fold change vs veh, ZBTB11 / RFU, TAMM41 / Fold change vs veh, TAMM41 / RFU, KIAA1704 /// LOC100996395 / Fold change vs veh, KIAA1704 /// LOC100996395 / RFU, ING1 / Fold change vs veh, ING1 / RFU, TRMT61B / Fold change vs veh, TRMT61B / RFU, FUBP3 / Fold change vs veh, FUBP3 / RFU, TP53 / Fold change vs veh, TP53 / RFU, TNKS2 / Fold change vs veh, TNKS2 / RFU, ZFP14 / Fold change vs veh, ZFP14 / RFU, ACTR2 / Fold change vs veh, ACTR2 / RFU, PPP3R1 / Fold change vs veh, PPP3R1 / RFU, PIK3R1 / Fold change vs veh, PIK3R1 / RFU, HNRNPA1 / Fold change vs veh, HNRNPA1 / RFU, RNF170 / Fold change vs veh, RNF170 / RFU, ZNF28 / Fold change vs veh, ZNF28 / RFU, RNGTT / Fold change vs veh, RNGTT / RFU, OGT / Fold change vs veh, OGT / RFU, BRD1 / Fold change vs veh, BRD1 / RFU, MARS / Fold change vs veh, MARS / RFU, ZNF655 / Fold change vs veh, ZNF655 / RFU, FAHD1 / Fold change vs veh, FAHD1 / RFU, BDP1 / Fold change vs veh, BDP1 / RFU, LRRCC1 / Fold change vs veh, LRRCC1 / RFU, ARID1A / Fold change vs veh, ARID1A / RFU, ZNF146 / Fold change vs veh, ZNF146 / RFU, ZNF330 / Fold change vs veh, ZNF330 / RFU, GPN3 / Fold change vs veh, GPN3 / RFU, C9orf123 / Fold change vs veh, C9orf123 / RFU, N4BP2L2 / Fold change vs veh, N4BP2L2 / RFU, ARFIP1 / Fold change vs veh, ARFIP1 / RFU, FAM179B / Fold change vs veh, FAM179B / RFU, BCL10 / Fold change vs veh, BCL10 / RFU, UHRF1BP1L / Fold change vs veh, UHRF1BP1L / RFU, BET1 / Fold change vs veh, BET1 / RFU, CNOT2 / Fold change vs veh, CNOT2 / RFU, ZNF268 / Fold change vs veh, ZNF268 / Fold change vs veh, ZNF507 / RFU, DGCR2 / Fold change vs veh, DGCR2 / RFU, WDSUB1 / Fold change vs veh, WDSUB1 / Fold change vs veh, HSP90B1 /// MIR3652 / RFU, ADSS / Fold change vs veh, ADSS / RFU, GK / Fold change vs veh, GK / RFU, ZNF148 / Fold change vs veh, ZNF148 / RFU, TAF9 / Fold change vs veh, TAF9 / RFU, SLC1A5 / Fold change vs veh, SLC1A5 / RFU, SLMO2 / Fold change vs veh, SLMO2 / RFU, ABCC4 / Fold change vs veh, ABCC4 / RFU, LOC101060439 /// RAP1B / Fold change vs veh, LOC101060439 /// RAP1B / RFU, RFX7 / Fold change vs veh, RFX7 / RFU, GTPBP10 / Fold change vs veh, GTPBP10 / RFU, CNEP1R1 / Fold change vs veh, CNEP1R1 / RFU, BIVM-ERCC5 /// ERCC5 / Fold change vs veh, BIVM-ERCC5 /// ERCC5 / RFU, ILF3 / Fold change vs veh, ILF3 / RFU 11762660_at / Fold change /veh 11762660_at / RFU VCAN (11757783_s_at) / Fold change /veh VCAN (11757783_s_at) / RFU DDX43 (11728927_at) / Fold change /veh DDX43 (11728927_at) / RFU KRT8 (11758188_x_at) / Fold change /veh KRT8 (11758188_x_at) / RFU NKD1 (11759106_at) / Fold change /veh NKD1 (11759106_at) / RFU SRD5A1 (11742802_a_at) / Fold change /veh SRD5A1 (11742802_a_at) / RFU TPSAB1 /// TPSB2 (11721975_s_at) / Fold change /veh TPSAB1 /// TPSB2 (11721975_s_at) / RFU GSTM3 (11746129_a_at) / Fold change /veh GSTM3 (11746129_a_at) / RFU IL23R (11737362_x_at) / Fold change /veh IL23R (11737362_x_at) / RFU TMEM51 (11727254_a_at) / Fold change /veh TMEM51 (11727254_a_at) / RFU PIWIL2 (11732686_x_at) / Fold change /veh PIWIL2 (11732686_x_at) / RFU ORM1 (11744905_x_at) / Fold change /veh ORM1 (11744905_x_at) / RFU CCDC152 (11743942_at) / Fold change /veh CCDC152 (11743942_at) / RFU ECM1 (11717891_a_at) / Fold change /veh ECM1 (11717891_a_at) / RFU IL23R (11748794_a_at) / Fold change /veh IL23R (11748794_a_at) / RFU TNFAIP8L3 (11732012_x_at) / Fold change /veh TNFAIP8L3 (11732012_x_at) / RFU MBOAT4 (11741988_at) / Fold change /veh MBOAT4 (11741988_at) / RFU 11764193_at / Fold change /veh 11764193_at / RFU TMEM53 (11763286_at) / Fold change /veh TMEM53 (11763286_at) / RFU MAGEB2 (11727129_at) / Fold change /veh MAGEB2 (11727129_at) / RFU TMEM200A (11744735_a_at) / Fold change /veh TMEM200A (11744735_a_at) / RFU CCDC152 (11751479_a_at) / Fold change /veh CCDC152 (11751479_a_at) / RFU FAM211A (11726209_a_at) / Fold change /veh FAM211A (11726209_a_at) / RFU RGS16 (11746705_a_at) / Fold change /veh RGS16 (11746705_a_at) / RFU VCAN (11755009_s_at) / Fold change /veh VCAN (11755009_s_at) / RFU RHOB (11743442_s_at) / Fold change /veh RHOB (11743442_s_at) / RFU RGS16 (11720943_a_at) / Fold change /veh RGS16 (11720943_a_at) / RFU RGS16 (11720944_at) / Fold change /veh RGS16 (11720944_at) / RFU, VPS4B / Fold change vs veh, VPS4B / RFU, CREB1 / Fold change vs veh, CREB1 / RFU, DNAJC13 / Fold change vs veh, DNAJC13 / RFU, GNAQ / Fold change vs veh, GNAQ / RFU, CDK5R1 / Fold change vs veh, CDK5R1 / RFU, ZRANB3 / Fold change vs veh, ZRANB3 / RFU, CUL4A / Fold change vs veh, CUL4A / RFU, CCNY / Fold change vs veh, CCNY / RFU, UFL1 / Fold change vs veh, UFL1 / RFU, COG3 / Fold change vs veh, COG3 / RFU, DIAPH2 / Fold change vs veh, DIAPH2 / RFU, SKA2 / Fold change vs veh, SKA2 / RFU, AFF3 / Fold change vs veh, AFF3 / RFU, LMF1 / Fold change vs veh, LMF1 / RFU, IPO11 / Fold change vs veh, IPO11 / RFU, DFFB / Fold change vs veh, DFFB / RFU, FOXP1 / Fold change vs veh, FOXP1 / RFU, CARD8 / Fold change vs veh, CARD8 / RFU, STRN3 / Fold change vs veh, STRN3 / RFU, ADK / Fold change vs veh, ADK / RFU, RASSF2 / Fold change vs veh, RASSF2 / RFU, WIPF1 / Fold change vs veh, WIPF1 / RFU, LARP1B / Fold change vs veh, LARP1B / RFU, RASA1 / Fold change vs veh, RASA1 / RFU, RB1 / Fold change vs veh, RB1 / RFU, PPFIA1 / Fold change vs veh, PPFIA1 / RFU, MAT2A / Fold change vs veh, MAT2A / RFU, CCT5 / Fold change vs veh, CCT5 / RFU, WDR92 / Fold change vs veh, WDR92 / RFU, CUX1 / Fold change vs veh, CUX1 / RFU, TTC7A / Fold change vs veh, TTC7A / RFU, TMEM135 / Fold change vs veh, TMEM135 / RFU, DEPTOR / Fold change vs veh, DEPTOR / RFU, CPM / Fold change vs veh, CPM / RFU, DNAJB6 / Fold change vs veh, DNAJB6 / RFU, CACNA2D3 / Fold change vs veh, CACNA2D3 / RFU, DTX4 / Fold change vs veh, DTX4 / RFU, TFCP2 / Fold change vs veh, TFCP2 / RFU, GMCL1 /// GMCL1P1 / Fold change vs veh, GMCL1 /// GMCL1P1 / RFU, AEBP2 / Fold change vs veh, AEBP2 / RFU, SNHG1 /// SNORD22 /// SNORD25 /// SNORD26 /// SNORD27 /// SNORD28 /// SNORD29 /// SNORD31 / Fold change vs veh, SNHG1 /// SNORD22 /// SNORD25 /// SNORD26 /// SNORD27 /// SNORD28 /// SNORD29 /// SNORD31 / Fold change (Aza/veh), C12orf56 (ProbeSet 11735607_a_at) / Fold change (ACY-1035/veh), C12orf56 (ProbeSet 11735607_a_at) / Fold change (Aza/veh), FGFR1OP (ProbeSet 11751329_s_at) / Fold change (ACY-1035/veh), FGFR1OP (ProbeSet 11751329_s_at) / Fold change (Aza/veh), VPS36 (ProbeSet 11739960_a_at) / Fold change (ACY-1035/veh), VPS36 (ProbeSet 11739960_a_at) / RFU SYPL1 (11715823_x_at) / Fold change /veh SYPL1 (11715823_x_at) / RFU IGFBP7 (11715501_s_at) / Fold change /veh IGFBP7 (11715501_s_at) / RFU REEP3 (11722064_at) / Fold change /veh REEP3 (11722064_at) / RFU IGLL1 (11728026_x_at) / Fold change /veh IGLL1 (11728026_x_at): dose or concentration left out as unconfirmed
Details: ProbeSet 11720566_at; LIST D

Nc1ccc(-c2cccs2)cc1NC(=O)c1ccc2c(c1)cc(C1CC1)n2CCN1CCOCC1 [ACY-1035]
RFU, BCAT1: 827.78 RFU
